This is an account of results in US8563259B2, “Complement-mediated thrombophilic assay” (The Trustees of the University of Pennsylvania, priority 2007, dated 2013).

Structures are written as SMILES.

The assay relates to TF expression induced by activated complement in normal primary cells (monocytes or neutrophils). Description: modified PT (mPT) assay with supernatant of healthy primary cells stimulated with patient serum, with or without complement inhibitor. In kind it is cell-based, human. From the text: To test serum for complement activating activity, serum was obtained from patients diagnosed with various disorders. Serum was obtained from patients diagnosed with: antiphospholipid syndrome (APS; n=26), systemic lupus erythymatosus (SLE; n=9), rheumatoid arthritis (n=12), sepsis (n=6), metastatic cancer (n=8) and inherited hypercoagulation (n=9). Serum was also obtained from healthy individuals (n=22).
Freshly obtained primary cells (monocytes or neutrophils) obtained from healthy donors were suspended in phosphate buffered saline (PBS). In parallel, the cells were stimulated with patient serum and with patient serum that was pre-incubated for 30 minutes with either 15 μM Compstatin or 10 μM C5aR antagonist to inhibit complement. The cells were incubated with serum for approximately 2 to 2.5 hours at 37° C. Subsequently, supernatant from the serum-incubated cells was obtained by centrifugation at 1000×g for 10 minutes. The supernatant was then assessed in a modified PT assay.
In a standard PT assay, 100 μl patient plasma is mixed with 200 μl commercial thromboplastin (International Sensitivity Index (ISI) 1.0 or ISI 1.9), and time of clotting is assessed by measuring in seconds the time required for clot formation after thromboplastin is added. In the modified PT (mPT) assay, 100 μl platelet-poor plasma (PPP) from a healthy subject was used and about 120-130 μl of the commercial thromboplastin (also called tissue factor) was replaced with PBS (the total volume of clotting reaction remains stable, at 300 μl) in order to obtain a technical prolongation of the clotting time from about 12-13 seconds to about 32-37 seconds. To test the effect of the test serum on TF expression of healthy primary blood cells, the about 120-130 μl PBS was replaced with about 120-130 μl of supernatant from the primary cells stimulated with test serum. All mPT assays were performed independently by two experienced physicians.
When complement is activated in the test serum, the use of 120-130 μl supernatant in the mPT test reduces the clotting time from about 32-37 sec to about 18-20 seconds. This reduction in clotting time occurs because TF expression is induced in the normal primary cells by the activated complement. When the activated complement in the test serum has been inhibited (e.g., with Compstatin or C5aR antagonist), TF expression is not induced by activated complement in normal primary cells and the mPT remains unchanged (about 32 to about 37 seconds).

Regarding `CC[C@H](C)[C@H](N)C(=O)N[C@H]1CSSC[C@@H](C(=O)N[C@H](C(N)=O)[C@@H](C)O)NC(=O)[C@H](CCCN=C(N)N)NC(=O)[C@H](Cc2cnc[nH]2)NC(=O)[C@H](Cc2cnc[nH]2)NC(=O)CNC(=O)[C@H](Cc2c[nH]c3ccccc23)NC(=O)[C@H](CC(=O)O)NC(=O)[C@H](CCC(N)=O)NC(=O)[C@H](C(C)C)NC(=O)[C@H](C(C)C)NC1=O` [Compstatin, Ile-Cys-Val-Val-Gln-Asp-Trp-Gly-His-His-Arg-Cys-Thr], the “sensitivity of the mPT test after Compstatin-mediated inhibition of complement (pro-coagulant activity completely abolished)” value (APS and SLE patients) was 100%. In addition, the “Clotting time” value (APS serum (n = 26), serum pre-incubated 30 minutes with 15 μM Compstatin or 10 μM C5aR antagonist) is 31.11 ± 0.26 s; the “Clotting time” value (Acute sepsis serum (n = 6), serum pre-incubated 30 minutes with 15 μM Compstatin or 10 μM C5aR antagonist) is 28.97 ± 0.80 s; the “Clotting time” value (Healthy donor serum (n = 22), serum pre-incubated 30 minutes with 15 μM Compstatin or 10 μM C5aR antagonist) stood at 31.19 ± 0.16 s; the “Clotting time” value (Inherited hypercoagulation serum (n = 9), serum pre-incubated 30 minutes with 15 μM Compstatin) worked out at 29.01 ± 1.08 s; the “Clotting time” value (Metastatic cancer serum (n = 8), serum pre-incubated 30 minutes with 15 μM Compstatin) is 26.07 ± 1.21 s; the “Clotting time” value (Rheumatoid arthritis serum (n = 12), serum pre-incubated 30 minutes with 15 μM Compstatin) is 30.26 ± 0.81 s. Also, the “Clotting time” value (SLE serum (n = 9), serum pre-incubated 30 minutes with 15 μM Compstatin or 10 μM C5aR antagonist) is 31.26 ± 0.17 s. Further, the “difference in clotting time before and after inhibition in acute sepsis, as share of the time difference for either APS or SLE serum” value (acute sepsis serum versus APS or SLE serum) was “about 30%”. For the setting “sera from septic patients”, the “effect of treatment on clotting time” value is listed as “partial inhibition”.
